Results as given in patent publication US7566712B2, “Biaryl piperazinyl-pyridine analogues” (Neurogen Corporation, priority 2003, dated 2009).
pIC50: −log10 of the molar value.

Biological target: T1, human capsaicin receptor (Homo sapiens, UniProt Q8NER1)
T1 construct: pBK-CMV expression construct encoding the full length human capsaicin receptor; expressed in transfected cells
Experiment: Calcium mobilization assay, determination of antagonist activity (Example 6)
Assay type: cell-based
Settings: Table II
Procedure, shortened: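 HEK293 clonal lines stably expressing full-length human capsaicin receptor, loaded with Fluo-3 AM in KRH buffer pH 7.4, 1–2 h at 37 °C. Compounds (1–5 μM final) preincubated 0.5–6 h at room temperature, then capsaicin at its EC50 added. FLIPR/Fluoroskan calcium signal; IC50 as 50% decrease of capsaicin response.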

[1] = IC50 determined as described in Example 6
[2] = determined as described in Example 6 (antagonist activity), "*" = 1 micromolar or less
[3] = determined as described in Example 6 (calcium mobilization, antagonist activity)

T1 sequence (Q8NER1 whole entry): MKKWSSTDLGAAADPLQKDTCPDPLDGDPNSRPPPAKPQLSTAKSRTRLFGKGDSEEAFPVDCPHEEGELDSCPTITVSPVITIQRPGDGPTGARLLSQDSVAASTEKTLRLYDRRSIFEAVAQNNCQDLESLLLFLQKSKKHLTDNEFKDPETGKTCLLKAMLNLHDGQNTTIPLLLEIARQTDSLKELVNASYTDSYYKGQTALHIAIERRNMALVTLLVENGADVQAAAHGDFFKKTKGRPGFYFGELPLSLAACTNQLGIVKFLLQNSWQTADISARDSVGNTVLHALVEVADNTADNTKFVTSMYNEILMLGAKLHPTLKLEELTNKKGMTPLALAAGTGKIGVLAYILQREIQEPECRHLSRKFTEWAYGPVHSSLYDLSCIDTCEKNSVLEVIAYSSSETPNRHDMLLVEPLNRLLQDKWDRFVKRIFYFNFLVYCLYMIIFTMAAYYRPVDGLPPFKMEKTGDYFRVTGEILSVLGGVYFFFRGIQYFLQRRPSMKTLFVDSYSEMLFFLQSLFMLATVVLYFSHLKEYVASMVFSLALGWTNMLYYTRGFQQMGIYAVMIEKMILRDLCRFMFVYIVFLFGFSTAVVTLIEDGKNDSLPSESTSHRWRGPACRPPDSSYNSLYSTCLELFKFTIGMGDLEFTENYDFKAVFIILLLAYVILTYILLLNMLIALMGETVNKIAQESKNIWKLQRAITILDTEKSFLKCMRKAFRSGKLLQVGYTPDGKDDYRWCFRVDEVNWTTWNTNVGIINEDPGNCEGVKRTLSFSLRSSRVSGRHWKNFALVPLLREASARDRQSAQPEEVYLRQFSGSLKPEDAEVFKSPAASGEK

Structure (SMILES) | pIC50 [2] | pIC50 [3] | further results
CCOc1cccc(-c2cc(N3CCN(c4ncccc4C)C[C@H]3C)nc(N3CCOCC3)n2)c1 [Example 529, 4-{4-(3-ethoxyphenyl)-6-[(2R)-2-methyl-4-(3-methylpyridin-2-yl)piperazin-1-yl]pyrimidin-2-yl}morpholine] |  |  | pIC50 [1]: ≥ 6.00
CSc1cccc(-c2cc(N3CCN(c4ncccc4C#N)C[C@H]3C)nc(N3CCOCC3)n2)c1 [Example 536, 2-((3R)-3-methyl-4-{6-[3-(methylthio)phenyl]-2-morpholin-4-ylpyrimidin-4-yl}piperazin-1-yl)nicotinonitrile] |  |  | pIC50 [1]: ≥ 6.00
Cc1cc(-c2cc(N3CCN(c4ncccc4C(F)(F)F)CC3)nc(N3CCC3C)n2)ccc1F (stereo not drawn) [Example 756, 4-(4-fluoro-3-methylphenyl)-2-(2-methylazetidin-1-yl)-6-{4-[3-(trifluoromethyl)pyridin-2-yl]piperazin-1-yl}pyrimidine] |  | ≥ 6.00 | 
COC[C@@H]1CCCN1c1nc(-c2ccc(F)c(Cl)c2)cc(N2CCN(c3ncccc3Cl)C[C@H]2C)n1 [Example 735, 4-(3-chloro-4-fluorophenyl)-6-[(2R)-4-(3-chloropyridin-2-yl)-2-methylpiperazin-1-yl]-2-[(2S)-2-(methoxymethyl)pyrrolidin-1-yl]pyrimidine] |  | ≥ 6.00 | 
Cc1cc(-c2cc(N3CCN(c4ncccc4Cl)C[C@H]3C)nc(N3CCC[C@H]3C)n2)ccc1F [Example 924, 4-[(2R)-4-(3-chloropyridin-2-yl)-2-methylpiperazin-1-yl]-6-(4-fluoro-3-methylphenyl)-2-[(2R)-2-methylpyrrolidin-1-yl]pyrimidine] | ≥ 6.00 |  | 
C[C@H]1CN(c2ncccc2Cl)CCN1c1cc(-c2ccc(F)c(Cl)c2)nc(N2CCOCC2)n1 [Example 947, 4-{4-(3-chloro-4-fluorophenyl)-6-[(2S)-4-(3-chloropyridin-2-yl)-2-methylpiperazin-1-yl]pyrimidin-2-yl}morpholine] | ≥ 6.00 |  | 
CCOc1cc(-c2cc(N3CCN(c4ncccc4C(F)(F)F)CC3)nc(N3CCOCC3)n2)ccn1 [Example 577, 4-(4-(2-ethoxypyridin-4-yl)-6-{4-[3-(trifluoromethyl)pyridin-2-yl]piperazin-1-yl}pyrimidin-2-yl)morpholine] |  | ≥ 6.00 | 
C[C@@H]1CN(c2nccnc2Cl)CCN1c1cc(-c2ccc(F)cc2)nc(N2CCCC2)n1 [Example 928, 4-[(2R)-4-(3-chloropyrazin-2-yl)-2-methylpiperazin-1-yl]-6-(4-fluorophenyl)-2-pyrrolidin-1-ylpyrimidine] | ≥ 6.00 |  | 
Cc1ccc(-c2cc(N3CCN(c4ncccc4Cl)C[C@H]3C)nc(N3CCOCC3)n2)cc1F [Example 980, 4-[4-[(2R)-4-(3-chloropyridin-2-yl)-2-methylpiperazin-1-yl]-6-(3-fluoro-4-methylphenyl)pyrimidin-2-yl]morpholine] |  |  | pIC50 (IC50 determined as described in Example 6 (antagonist activity, calcium mobilization)): ≥ 6.00
Cc1cc(-c2cc(N3CCN(c4ncccc4Cl)C[C@H]3C)nc(N3CCCCC3)n2)ccc1F [Example 720, 4-[(2R)-4-(3-chloropyridin-2-yl)-2-methylpiperazin-1-yl]-6-(4-fluoro-3-methylphenyl)-2-piperidin-1-ylpyrimidine] |  | ≥ 6.00 | 
Cc1cc(-c2cc(N3CCN(c4ncccc4Cl)C[C@@H]3C)nc(N3CCOCC3)n2)ccc1F [Example 904, 4-[4-[(2S)-4-(3-chloropyridin-2-yl)-2-methylpiperazin-1-yl]-6-(4-fluoro-3-methylphenyl)pyrimidin-2-yl]morpholine] | ≥ 6.00 |  | 
Cc1cc(-c2cc(Cl)nc(N3CCN(c4ncccc4Cl)C[C@@H]3C)n2)ccc1F (stereo in doubt) [Example 899, 4-chloro-2-[4-(3-chloropyridin-2-yl)-2-methylpiperazin-1-yl]-6-(4-fluoro-3-methylphenyl)pyrimidine] | ≥ 6.00 |  | 
CCCN1CCN(c2nc(-c3ccc(F)c(F)c3)cc(N3CCN(c4ncccc4Cl)C[C@H]3C)n2)CC1 [Example 788, 4-[(2R)-4-(3-chloropyridin-2-yl)-2-methylpiperazin-1-yl]-6-(3,4-difluorophenyl)-2-(4-propylpiperazin-1-yl)pyrimidine] | ≥ 6.00 |  | 
C[C@@H]1CN(c2ncccc2Cl)CCN1c1cc(-c2ccc(F)c(F)c2)nc(N2CCCC2)n1 [Example 767, 4-[(2R)-4-(3-chloropyridin-2-yl)-2-methylpiperazin-1-yl]-6-(3,4-difluorophenyl)-2-pyrrolidin-1-ylpyrimidine] |  | ≥ 6.00 | 
CCc1ccc(-c2cc(N3CCN(c4ncccc4C#N)C[C@H]3C)nc(N3CCOCC3)n2)cc1 [Example 509, 2-{(3R)-4-[6-(4-ethylphenyl)-2-morpholin-4-ylpyrimidin-4-yl]-3-methylpiperazin-1-yl}nicotinonitrile] |  |  | pIC50 [1]: ≥ 6.00

Now from value to compound, other results behind:

pIC50 [2] | pIC50 [3] | Structure (SMILES) | further results
≥ 6.00 |  | C[C@@H]1CN(c2ncccc2Cl)CCN1c1cc(-c2ccc(F)cc2)nc(N2CCOCC2)n1 [Example 845, 4-[4-[(2R)-4-(3-chloropyridin-2-yl)-2-methylpiperazin-1-yl]-6-(4-fluorophenyl)pyrimidin-2-yl]morpholine] | 
≥ 6.00 |  | Cc1ccc(-c2cc(N3CCN(c4ncccc4Cl)C[C@H]3C)nc(N3CCCC3C)n2)cc1F (stereo partly drawn) [Example 803, 4-[(2R)-4-(3-chloropyridin-2-yl)-2-methylpiperazin-1-yl]-6-(3-fluoro-4-methylphenyl)-2-(2-methylpyrrolidin-1-yl)pyrimidine] | 
 | ≥ 6.00 | Cc1cc(-c2cc(N3CCN(c4ncccc4F)CC3)nc(N3CCCC3C)n2)ccc1F (stereo not drawn) [Example 708, 4-(4-fluoro-3-methylphenyl)-6-[4-(3-fluoropyridin-2-yl)piperazin-1-yl]-2-(2-methylpyrrolidin-1-yl)pyrimidine] | 
 | ≥ 6.00 | N#Cc1cccnc1N1CCN(c2cc(-c3ccc(F)c(Cl)c3)nc(N3CCOCC3)n2)CC1 [Example 583, 2-{4-[6-(3-chloro-4-fluorophenyl)-2-morpholin-4-ylpyrimidin-4-yl]piperazin-1-yl}nicotinonitrile] | 
 | ≥ 6.00 | Cc1cc(-c2cc(N3CCN(c4ncccc4C(F)(F)F)CC3)nc(N3CCCC3C)n2)ccc1F (stereo not drawn) [Example 676, 4-(4-fluoro-3-methylphenyl)-2-(2-methylpyrrolidin-1-yl)-6-{4-[3-(trifluoromethyl)pyridin-2-yl]piperazin-1-yl}pyrimidine] | 
 | ≥ 6.00 | CC1CCC(C)N1c1nc(-c2ccc(F)c(Cl)c2)cc(N2CCN(c3ncccc3Cl)CC2)n1 (stereo not drawn) [Example 751, 4-(3-chloro-4-fluorophenyl)-6-[4-(3-chloropyridin-2-yl)piperazin-1-yl]-2-(2,5-dimethylpyrrolidin-1-yl)pyrimidine] | 
≥ 6.00 |  | C[C@@H]1CN(c2ncccc2Cl)CCN1c1cc(-c2ccc(F)c(Cl)c2)nc(Cl)n1 (stereo in doubt) [Example 827, 2-chloro-4-(3-chloro-4-fluorophenyl)-6-[4-(3-chloropyridin-2-yl)-2-methylpiperazin-1-yl]pyrimidine] | 
 | ≥ 6.00 | CC(C)c1nccn1-c1nc(-c2ccc(F)c(Cl)c2)cc(N2CCN(c3ncccc3C(F)(F)F)CC2)n1 [Example 651, 4-(3-chloro-4-fluorophenyl)-2-(2-isopropyl-1H-imidazo-1-yl)-6-{4-[3-(trifluoromethyl)pyridin-2-yl]piperazin-1-yl}pyrimidine] | 
≥ 6.00 |  | O=C(O)CCc1cccc(-c2cc(N3CCN(c4ncccc4C(F)(F)F)CC3)nc(N3CCOCC3)n2)c1 [Example 848, 3-(3-(2-morpholin-4-yl-6-{4-[3-(trifluoromethyl)pyridin-2-yl]piperazin-1-yl}pyrimidin-4-yl)phenyl]propanoic acid] | 
